{
  "source": "patent US12427134B2",
  "about": "“Methods of reducing the risk of cardiovascular events in a subject with atrial fibrillation and/or atrial flutter” (priority 2019, dated 2025)",
  "tested_on": "hypertriglyceridemic patients with cardiovascular disease or at high risk for cardiovascular disease",
  "assay": "REDUCE-IT: clinical laboratory evaluation (hematology, liver function tests, clinical chemistry, drug-induced liver injury)",
  "assay_type": "in vivo, human",
  "description": "Clinical Laboratory Procedures and Evaluations: All clinical laboratory determinations for screening and safety were performed by a certified clinical laboratory under the supervision of the Sponsor or its designee. Whenever possible and appropriate, samples for the clinical laboratory procedures were collected after fasting for at least 10 hours. For the purposes of this study, fasting was defined as nothing by mouth except water (and any essential medications). The investigator reviewed and signed all laboratory test reports. At screening, patients who had laboratory values that are outside the exclusionary limits specified in the exclusion criteria were not enrolled in the study (patients would have been considered for the study if values were classified as not clinically significant by the investigator). After randomization, the investigator was notified if laboratory values were outside of their normal range. In this case, the investigator was required to conduct clinically appropriate follow-up procedures.\nSafety Laboratory Tests: The safety parameters were analyzed by a certified clinical laboratory at screening (Visit 1 or Visit 1.1), Randomization visit (Visit 2; Day 0), Visit 3 (Day 120; −4 Months) and all other follow-up visits including the Last Visit. The safety laboratory tests included: • Hematology with complete blood count (CBC), including RBC, hemoglobin (Hgb), hematocrit (Hct), white cell blood count (WBC), white cell differential, and platelet count; and • Biochemistry panel including total protein, albumin, alkaline phosphatase, alanine am inotransferase (ALT/SGPT), aspartate am inotransferase (AST/SGOT), total bilirubin, glucose, calcium, electrolytes (sodium, potassium, chloride), blood urea nitrogen (BUN), serum creatinine, uric acid, creatine kinase, and HbA1c.\nEach laboratory result was classified as low (L), normal (N), and high (H) at each visit according to the laboratory-supplied normal range. The shift from baseline was presented for each post-baseline visit and overall post-baseline visits. If multiple measurements for a test parameter were available for a post-baseline patient-visit, the most extreme value was included in the shift table. For shift from baseline to overall post-baseline visits, values from all visits (including unscheduled measurements) were included. The chemistry shift table included fasting lipid parameters. The continuous lipid values were presented as part of the efficacy analysis.\nA treatment-emergent PCS high value at any time was defined as a change from a value less than or equal to the upper reference limit at baseline to a PCS high value at any post-baseline measurement. A treatment-emergent PCS low value at any time was defined as a change from a value greater than or equal to the lower reference limit at baseline to a PCS low value at any post-baseline measurement. Number (%) of patients with any post-baseline PCS laboratory values was summarized by treatment group. A listing of patients with PCS laboratory values at any time, i.e., baseline or at any post-baseline visit, were included.\nDILI cases were investigated through the following analyses: • A graph of distribution of peak values of alanine aminotransferase (ALT) versus peak values of total bilirubin (TBL) during the treatment period was prepared, using a logarithmic scale. In the graph, for each patient, the peak TBL times the Upper Limit of Normal (ULN) were plotted against the peak ALT times the ULN, where the peak TBL and peak ALT may or may not have happened on the same day of liver testing. The graph was divided into 4 quadrants with a vertical line corresponding to 3×ULN for ALT and a horizontal line corresponding to 2×ULN for TBL. […]",
  "key": {"[1]": {"conditions": "Baseline (Visit 2), Safety population"}, "[2]": {"conditions": "Visit 9 (n = 8), Safety population"}, "[3]": {"conditions": "Visit 9 (only 8 patients had data)"}, "[4]": {"conditions": "any post-baseline visit, 3975 patients with data"}, "[5]": {"conditions": "any post-baseline visit, 3977 patients with data"}},
  "data": [
    {"smiles": "CC/C=C\\C/C=C\\C/C=C\\C/C=C\\C/C=C\\CCCC(=O)OCC", "note": "[AMR101, eicosapentaenoic acid ethyl ester]", "values": [
      {"measurement": "ALT, mean baseline value", "setting": "[1]", "value": 27.72, "unit": "U/L"},
      {"measurement": "AST, mean baseline value", "setting": "[1]", "value": 24.47, "unit": "U/L"},
      {"measurement": "Hemoglobin, mean baseline value", "setting": "[1]", "value": 141.16, "unit": "g/L"},
      {"measurement": "Platelet Count, mean baseline value", "setting": "[1]", "value": "2.4301e+11", "unit": "L⁻¹"},
      {"measurement": "ALT, mean change from baseline", "setting": "Last Visit, Safety population", "value": "−2.33", "unit": "U/L"},
      {"measurement": "AST, mean change from baseline", "setting": "Last Visit, Safety population", "value": "−1.25", "unit": "U/L"},
      {"measurement": "Hemoglobin, mean change from baseline", "setting": "Last Visit, Safety population", "value": -1.12, "unit": "g/L"},
      {"measurement": "Platelet Count, mean change from baseline", "setting": "Last Visit, Safety population", "value": "-5.52e+09", "unit": "L⁻¹"},
      {"measurement": "Increase of 3×ULN in ALT or AST and increase of 2×ULN in total bilirubin, patients", "setting": "Safety population", "value": "one patient"},
      {"measurement": "Increase of 3×ULN in ALT or AST, increase of 2×ULN in total bilirubin, and alkaline phosphatase ≤2×ULN, patients", "setting": "Safety population", "value": "one patient"},
      {"measurement": "Individual study drug-related hematology and clinical chemistry TEAEs, incidence", "setting": "Safety population", "value": "< 0.2", "unit": "%"},
      {"measurement": "Patients with basophils PCS high >1%", "setting": "Safety population", "value": 47.0, "unit": "%"},
      {"measurement": "Patients with treatment-emergent total bilirubin >ULN", "setting": "Safety population", "value": 7.5, "unit": "%"},
      {"measurement": "TEAE blood glucose increased, patients", "setting": "Safety population", "value": 2.6, "unit": "%"},
      {"measurement": "TEAE hyperglycemia, patients", "setting": "Safety population", "value": 1.7, "unit": "%"},
      {"measurement": "TEAE hypoglycemia, patients", "setting": "Safety population", "value": 1.5, "unit": "%"},
      {"measurement": "ALT, mean change from baseline", "setting": "Visit 3, Safety population", "value": 0.39, "unit": "U/L"},
      {"measurement": "AST, mean change from baseline", "setting": "Visit 3, Safety population", "value": 0.24, "unit": "U/L"},
      {"measurement": "Hemoglobin, mean change from baseline", "setting": "Visit 3, Safety population", "value": 0.17, "unit": "g/L"},
      {"measurement": "Platelet Count, mean change from baseline", "setting": "Visit 3, Safety population", "value": "-2.36e+09", "unit": "L⁻¹"},
      {"measurement": "ALT, mean change from baseline", "setting": "Visit 4, Safety population", "value": "−0.28", "unit": "U/L"},
      {"measurement": "AST, mean change from baseline", "setting": "Visit 4, Safety population", "value": 0.03, "unit": "U/L"},
      {"measurement": "Hemoglobin, mean change from baseline", "setting": "Visit 4, Safety population", "value": 0.85, "unit": "g/L"},
      {"measurement": "Platelet Count, mean change from baseline", "setting": "Visit 4, Safety population", "value": "-4.85e+09", "unit": "L⁻¹"},
      {"measurement": "ALT, mean change from baseline", "setting": "Visit 5, Safety population", "value": "−1.27", "unit": "U/L"},
      {"measurement": "AST, mean change from baseline", "setting": "Visit 5, Safety population", "value": "−0.83", "unit": "U/L"},
      {"measurement": "Hemoglobin, mean change from baseline", "setting": "Visit 5, Safety population", "value": 1.39, "unit": "g/L"},
      {"measurement": "Platelet Count, mean change from baseline", "setting": "Visit 5, Safety population", "value": "-1.05e+10", "unit": "L⁻¹"},
      {"measurement": "ALT, mean change from baseline", "setting": "Visit 6, Safety population", "value": "−1.66", "unit": "U/L"},
      {"measurement": "AST, mean change from baseline", "setting": "Visit 6, Safety population", "value": "−1.10", "unit": "U/L"},
      {"measurement": "Hemoglobin, mean change from baseline", "setting": "Visit 6, Safety population", "value": 0.92, "unit": "g/L"},
      {"measurement": "Platelet Count, mean change from baseline", "setting": "Visit 6, Safety population", "value": "-1.368e+10", "unit": "L⁻¹"},
      {"measurement": "ALT, mean change from baseline", "setting": "Visit 7, Safety population", "value": "−2.80", "unit": "U/L"},
      {"measurement": "AST, mean change from baseline", "setting": "Visit 7, Safety population", "value": "−1.56", "unit": "U/L"},
      {"measurement": "Hemoglobin, mean change from baseline", "setting": "Visit 7, Safety population", "value": 0.64, "unit": "g/L"},
      {"measurement": "Platelet Count, mean change from baseline", "setting": "Visit 7, Safety population", "value": "-1.73e+10", "unit": "L⁻¹"},
      {"measurement": "Platelet count, greatest mean decrease from baseline excluding Visit 9", "setting": "Visit 8", "value": "1.85e+10", "unit": "L⁻¹"},
      {"measurement": "ALT, mean change from baseline", "setting": "Visit 8, Safety population", "value": "−3.42", "unit": "U/L"},
      {"measurement": "AST, mean change from baseline", "setting": "Visit 8, Safety population", "value": "−1.66", "unit": "U/L"},
      {"measurement": "Hemoglobin, mean change from baseline", "setting": "Visit 8, Safety population", "value": -0.33, "unit": "g/L"},
      {"measurement": "Platelet Count, mean change from baseline", "setting": "Visit 8, Safety population", "value": "-1.854e+10", "unit": "L⁻¹"},
      {"measurement": "ALT, mean change from baseline", "setting": "[2]", "value": "−1.25", "unit": "U/L"},
      {"measurement": "AST, mean change from baseline", "setting": "[2]", "value": 0.25, "unit": "U/L"},
      {"measurement": "Hemoglobin, mean change from baseline", "setting": "[2]", "value": -4.13, "unit": "g/L"},
      {"measurement": "Platelet Count, mean change from baseline", "setting": "[2]", "value": "-3.288e+10", "unit": "L⁻¹"},
      {"measurement": "Hemoglobin, greatest mean change from baseline", "setting": "[3]", "value": -4.1, "unit": "g/L"},
      {"measurement": "Platelet count, greatest mean decrease from baseline", "setting": "[3]", "value": "3.29e+10", "unit": "L⁻¹"},
      {"measurement": "ALT or AST >3 × ULN and Total Bilirubin >2 × ULN, % patients", "setting": "[4]", "value": "(0.0) %"},
      {"measurement": "ALT or AST >3 × ULN and Total Bilirubin >2 × ULN, n patients", "setting": "[4]", "value": 1},
      {"measurement": "ALT or AST >3 × ULN, % patients", "setting": "[4]", "value": "(1.5) %"},
      {"measurement": "ALT or AST >3 × ULN, Total Bilirubin >2 × ULN, and ALP ≤2 × ULN, % patients", "setting": "[4]", "value": "(0.0) %"},
      {"measurement": "ALT or AST >3 × ULN, Total Bilirubin >2 × ULN, and ALP ≤2 × ULN, n patients", "setting": "[4]", "value": 1},
      {"measurement": "ALT or AST >3 × ULN, n patients", "setting": "[4]", "value": 61},
      {"measurement": "PCS High >3 × ULN (AST) and >2 × ULN (Total Bilirubin), % patients", "setting": "[4]", "value": "(0.0) %"},
      {"measurement": "PCS High >3 × ULN (AST) and >2 × ULN (Total Bilirubin), n patients", "setting": "[4]", "value": 1},
      {"measurement": "Treatment-emergent AST >3 × ULN, % patients", "setting": "[4]", "value": "(0.9) %"},
      {"measurement": "Treatment-emergent AST >3 × ULN, n patients", "setting": "[4]", "value": 36},
      {"measurement": "Treatment-emergent AST >ULN, % patients", "setting": "[4]", "value": "(23.4) %"},
      {"measurement": "Treatment-emergent AST >ULN, n patients", "setting": "[4]", "value": 932},
      {"measurement": "PCS High >3 × ULN (ALT) and >2 × ULN (Total Bilirubin), % patients", "setting": "[5]", "value": "(0.0) %"},
      {"measurement": "PCS High >3 × ULN (ALT) and >2 × ULN (Total Bilirubin), n patients", "setting": "[5]", "value": 1},
      {"measurement": "Treatment-emergent ALP >2 × ULN, % patients", "setting": "[5]", "value": "(0.5) %"},
      {"measurement": "Treatment-emergent ALP >2 × ULN, n patients", "setting": "[5]", "value": 18},
      {"measurement": "Treatment-emergent ALP >ULN, % patients", "setting": "[5]", "value": "(7.7) %"},
      {"measurement": "Treatment-emergent ALP >ULN, n patients", "setting": "[5]", "value": 308},
      {"measurement": "Treatment-emergent ALT >3 × ULN, % patients", "setting": "[5]", "value": "(1.1) %"},
      {"measurement": "Treatment-emergent ALT >3 × ULN, n patients", "setting": "[5]", "value": 44},
      {"measurement": "Treatment-emergent ALT >ULN, % patients", "setting": "[5]", "value": "(32.9) %"},
      {"measurement": "Treatment-emergent ALT >ULN, n patients", "setting": "[5]", "value": 1308},
      {"measurement": "Treatment-emergent Total Bilirubin >2 × ULN, % patients", "setting": "[5]", "value": "(0.5) %"},
      {"measurement": "Treatment-emergent Total Bilirubin >2 × ULN, n patients", "setting": "[5]", "value": 21},
      {"measurement": "Treatment-emergent Total Bilirubin >ULN, % patients", "setting": "[5]", "value": "(7.5) %"},
      {"measurement": "Treatment-emergent Total Bilirubin >ULN, n patients", "setting": "[5]", "value": 297},
      {"measurement": "Hemoglobin, greatest mean change from baseline excluding Visit 9", "setting": "final visit", "value": -1.1, "unit": "g/L"}
    ]}
  ]
}
